According to patent US20130071547A1, “LOW CALORIC FAT REPLACERS” (NESTEC S.A., priority 2009, published 2013):
“Also recorded” adds a separate entry of the source. Where two headings read alike, the source gives them in different places.

Legend:
subjects [1] = assay: Description of the sensory attributes of GPR40 agonists by untrained subjects; format: in vivo, human; details: for SUMMARY of the comments (sensory attributes): eight subjects with nose clips; for sensory attributes described by most participants: 0.5% ethanol solutions, untrained subjects with nose clips; for fatty mouth sensation (overall conclusion of Example 2): conclusion from triangle and descriptive tests
Text: In a different experiment, untrained subjects were asked to describe the sensory attributes of the agonists. The majority of participants described the molecules as creamy, oily, or providing mouth and lip coating (Tables 2 and 3).
Eight subjects wearing nose clips were presented with 0.5% ethanol solutions containing agonists of GPR40 and asked to describe them.

GPR40 [2] = target: T1, GPR40 (Homo sapiens, UniProt O14842); assay: Calcium response of Chem-1 cells stably expressing GPR40 (calcium sensitive dye, Flex station); format: cell-based
T1 construct: expressed in transfected cells; host or cells: Chem-1 (Chem1) cells stably expressing GPR40
T1 sequence (O14842 whole entry, species assumed): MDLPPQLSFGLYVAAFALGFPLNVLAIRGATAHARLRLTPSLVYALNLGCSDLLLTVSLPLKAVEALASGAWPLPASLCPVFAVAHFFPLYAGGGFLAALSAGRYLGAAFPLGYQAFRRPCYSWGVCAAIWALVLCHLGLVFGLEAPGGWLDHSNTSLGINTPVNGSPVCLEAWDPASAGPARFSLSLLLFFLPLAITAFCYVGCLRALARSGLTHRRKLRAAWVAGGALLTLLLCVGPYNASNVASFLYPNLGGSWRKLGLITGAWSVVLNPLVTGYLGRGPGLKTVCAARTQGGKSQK
Text: The calcium response of Chem-1 cells stably expressing GPR40 to increasing concentration of 12-Methyltridecanal is shown.
To determine if 12-Methyltridecanal is an agonist of GPR40, Chem1 cells stably expressing GPR40 were loaded with a calcium sensitive dye, stimulated with increasing concentrations of 12-Methyltridecanal, and their calcium response measured using a Flex station.

wild type Chem1 cells = assay: Calcium response of wild type Chem1 cells (control cells); format: cell-based
subjects [3] = assay: 2-Alternative forced choice test of the fattiness of 12-Methyltridecanal; format: in vivo, human
Procedure: 12-Methyltridecanal was dissolved in 0.5% ethanol in water. Control samples were 0.5% ethanol in water. Three concentrations were tested. For each concentration thirty nine subjects wearing nose clips were presented with one cup containing the compound and one control cup in a random order. The subjects were asked to identify which sample is fattier. The significance level is shown with a solid line.
2-Alternative forced choice tests were used to test the fattiness of 12-Methyltridecanal. Thirty nine subjects were presented with two cups, one with a solution containing 12-Methyltridecanal and the other vehicle alone. The subjects were wearing nose clips, and were asked which sample is fattier. A significant number of participants found the sample containing the highest concentration of 12-Methyltridecanal fattier (28 out of 39 subjects, p<0.01) (FIG. 5).

subjects [4] = assay: Descriptive information on taste, texture and after taste of compound 20; format: in vivo, human; details: 51.2 μM in 0.5% ethanol, nose clips; for Taste (descriptor: number of subjects): wrapped cell: 'Slightly savoury: 1'; for Texture (descriptor: number of subjects): wrapped cells: 'Slightly viscous: 2', 'Slightly coats the mouth: 2'
Procedure: Six subjects wearing nose clips were presented with 0.5% ethanol in water (warm up sample) or 51.2 μM compound 20 in 0.5% ethanol (reference sample). Participants were asked to describe, avoiding hedonic terms, the taste, texture and aftertaste of the reference sample. Five out of 6 subjects found texture attributes compatible with the texture of fat.

subjects [5] = assay: Triangle tests with GPR40 agonists (identify the odd sample); format: in vivo, human; details: highest concentration tested, 0.5% ethanol in water, nose clips; for participants who correctly identified the odd sample: one compound cup and two control cups; for identification of the sample with the compound as the odd sample (significance): 21 subjects
Procedure: The GPR40 agonist (Compound 5 or Compound 20) was dissolved in 0.5% ethanol in water. Control samples were 0.5% ethanol in water. Three concentrations for compound 5 and four concentrations for compound 20 were tested. For each concentration twenty one subjects wearing nose clips were presented with one cup containing the compound and two control cups in a random order. The subjects were asked to identify the odd sample. […] The significance level is shown with a dashed line. * p<0.01, ** p<0.0001
Triangle tests were used with 21 subjects to determine if solutions containing Compound 5 or Compound 20 taste different from solutions with the same vehicle but without compounds. The subjects, wearing nose clips, were presented with three samples in random order, one containing the agonist, and two control solutions, and were asked to identify the odd sample. Eighteen out of 21 participants correctly identified the highest concentration of compound 5 (p<0.0001), and 13 out of 21 correctly identified the highest concentration of Compound 20 (p<0.01) (FIG. 3).

GPR40 [6] = target: T1, GPR40; details: cited from earlier work
subjects [7] = assay: 2-Alternative forced choice test, which solution tastes fattier (Medica 16, rosiglitazone); format: in vivo, human; details: agonist solution vs water, 40 subjects, p<0.05
Procedure: A correct choice is defined as choosing as fattier the sample containing the test ingredients. Medica 16 and rosiglitazone were assessed independently at three concentration, 10 μM, 50 μM and 100 μM.
Forty subjects were given two solutions one containing the agonist and the other water, and asked which one tastes fattier.

CCCCC/C=C\C/C=C\CCCCCCCC(=O)O [Linoleic acid]
SUMMARY of the comments (sensory attributes) (subjects [1]; 450 μM in 0.5% ethanol, r7 continues in r8 ('texture.')): Astringent. Pungent; also recorded: Some mentions on creamy, viscous

CC(C)CCCCCCCCCCC=O [12-Methyltridecanal]
calcium response to increasing concentrations (GPR40 [2]): clear dose-dependant response
calcium response to increasing concentrations (wild type Chem1 cells): do not respond; also recorded: did not respond
fatty taste effect versus control (subjects [3]; 10 μM (lowest concentration), 39 subjects, 0.5% ethanol in water, nose clips): no significant effect
subjects choosing the sample with the compound as fattier than control (correct choice) (subjects [3]; 50 μM, 39 subjects, trend, p<0.05, not significant when taking into consideration multiple testing): 26
subjects choosing the sample with the compound as fattier than control (subjects [3]; 100 μM (highest concentration), 39 subjects, 0.5% ethanol in water, nose clips, p<0.0087 (p<0.01)): 28 subjects
fatty mouth sensation (overall conclusion of Example 2) (subjects [3]; conclusion from 2-Alternative forced choice test): impart a fatty mouth sensation

Cc1ccccc1C#Cc1ccc(CCC(=O)O)cc1 [Compound 20]
subjects who found texture attributes compatible with the texture of fat (subjects [4]): Five
Others (comments) (subjects [4]; six subjects, wrapped cell: 'Slightly burning, hot, at the side of the tongue after spitting out.'): Slightly burning,
Taste (descriptor: number of subjects) (subjects [4]; six subjects): Slightly
Taste (descriptor: number of subjects) (subjects [4]; six subjects, no taste noted): None: 5
After taste (descriptor: number of subjects) (subjects [4]; six subjects, wrapped cells: 'Astringent at the back of the throat', 'Bitter - Very slightly'): None: 3
Texture (descriptor: number of subjects) (subjects [4]; six subjects): Slightly
Texture (descriptor: number of subjects) (subjects [4]; six subjects, a bit oily texture): A bit oily: 1
Texture (descriptor: number of subjects) (subjects [4]; six subjects, greasy texture): Greasy: 2
Texture (descriptor: number of subjects) (subjects [4]; six subjects, no texture noted): None: 1
Texture (descriptor: number of subjects) (subjects [4]; six subjects, slightly coats the mouth): Slightly coats
Texture (descriptor: number of subjects) (subjects [4]; six subjects, waxy texture): Waxy: 1
SUMMARY of the comments (sensory attributes) (subjects [1]; 51.2 μM in 0.5% ethanol, agreement over most participants on lip coating, creamy): Coating the lips, creamy; also recorded: Slightly bitter
sensory attributes described by most participants (subjects [1]): agreement from most participants on the creaminess, mouth and lip coating
fatty mouth sensation (overall conclusion of Example 2) (subjects [1]): impart a fatty mouth sensation
participants who correctly identified the odd sample (subjects [5]): 13 out of 21
identification of the sample with the compound as the odd sample (significance) (subjects [5]): a significant number of subjects were able to identify the sample with the compound as the odd sample
GPR40 agonist activity (GPR40 [6]; as described in Christiansen et al, Journal of Medicinal Chemistry, 2008, 51, 7061-7064): GPR40 agonist activity was demonstrated

CN(CCOc1ccc(CC2SC(=O)NC2=O)cc1)c1ccccn1 (stereo not drawn) [Roziglitazone]
sample with agonist chosen as tasting fattier than control (subjects [7]; 50 μM): more subjects found the solution with agonists to taste fattier
sample with agonist chosen as tasting fattier than control (subjects [7]; 50 μM, listed as rosiglitazone): significantly chosen as fattier than control solution
sample with agonist chosen as tasting fattier than control (subjects [7]; 100 μM): more subjects found the solution with agonists to taste fattier
sample with agonist chosen as tasting fattier than control (subjects [7]; 100 μM, listed as rosiglitazone): significantly chosen as fattier than control solution

CC#CC(CC(=O)O)c1ccc(OCc2cc(-c3ccccc3)oc2C)cc1 (stereo not drawn) [Compound 5]
SUMMARY of the comments (sensory attributes) (subjects [1]; 40 μM in 0.5% ethanol, agreement over most participants on mouth coating, creaminess): Bitter; also recorded: Astringent/tingling; also recorded: Slight mouth coating, Creaminess; also recorded: Persistent
sensory attributes described by most participants (subjects [1]): agreement from most participants on the creaminess, mouth and lip coating
fatty mouth sensation (overall conclusion of Example 2) (subjects [1]): impart a fatty mouth sensation
participants who correctly identified the odd sample (subjects [5]): Eighteen
identification of the sample with the compound as the odd sample (significance) (subjects [5]): a significant number of subjects were able to identify the sample with the compound as the odd sample
GPR40 agonist activity (GPR40 [6]; as described in patent WO2005/086661): GPR40 agonist activity was demonstrated

CC(C)(CCCCCCCCCCC(C)(C)CC(=O)O)CC(=O)O [Medica 16]
sample with agonist chosen as tasting fattier than control (subjects [7]; 50 μM): significantly chosen as fattier than control solution; also recorded: more subjects found the solution with agonists to taste fattier
sample with agonist chosen as tasting fattier than control (subjects [7]; 100 μM): significantly chosen as fattier than control solution; also recorded: more subjects found the solution with agonists to taste fattier
